How the values were obtained:
DLD-1 = assay: Lactate production assay; type: cell-based, human; conditions: normoxic
Description: (§1) Cellular lactate production was measured using a lactate fluorometric assay kit (Biovision, Milpitas, CA, USA) as described previously. Phenol red-free DMEM medium without FBS was added to a six-well plate containing subconfluent cells which were then incubated for 1 h at 37 °C. After incubation, the medium of each well was tested using a lactate assay kit (Biovision, Milpitas, CA, USA).

HCC-95 = assay: Lactate production assay; type: cell-based, human; conditions: normoxic
Description: as §1

HT29 = assay: Lactate production assay; type: cell-based, human; conditions: for Lactate (production): normoxic
Description: as §1

Hep3B = assay: Lactate production assay; type: cell-based, human; conditions: normoxic
Description: as §1

HepG2 = assay: Lactate production assay; type: cell-based, human; conditions: normoxic
Description: as §1

Huh7 = assay: Lactate production assay; type: cell-based, human; conditions: normoxic
Description: as §1

MCF7 = assay: Lactate production assay; type: cell-based, human; conditions: normoxic
Description: as §1

NCI-H1793 = assay: Lactate production assay; type: cell-based, human; conditions: normoxic
Description: as §1

R.K.O = assay: Lactate production assay; type: cell-based, human; conditions: normoxic
Description: as §1

WiDr = assay: Lactate production assay; type: cell-based, human; conditions: normoxic
Description: as §1

HT29 cells = assay: Mitochondrial ROS, MitoSOX FACS; type: cell-based, human; conditions: 24 h
Description: The production of mitochondrial ROS was determined by MitoSOX™ Red (Thermo Fisher Scientific, Waltham, MA, USA), respectively. Briefly, 5 μM MitoSOX™ Red was added to each cells cultured in conditioned medium and incubated at 37 °C for 10 min. The cells were then washed twice with PBS and the fluorescence intensity was analyzed using a BD FACS Canto II (BD Biosciences, San Jose, CA, USA) measuring excitation/emission at wavelength of 510/580 nm.

[1] = system: HT29 colorectal cancer cells; assay: Measurement of intracellular ATP; type: cell-based, human; conditions: machilin A 30 μM, hypoxia
Description: Intracellular ATP concentration was measured using an ATP bioluminescent somatic cell assay kit (Sigma-Aldrich) as previously described. A total of 1 × 10^6 cells were trypsinized and resuspended in ultrapure water. Luminescence was measured using a spectrofluometer (Spectramax M2, Molecular Devices, CA, USA) immediately after the addition of an ATP enzyme mix to the cell suspension.

LDHA = LDHA expression, western blot; type: cell-based, human; conditions: normoxic and hypoxic conditions
Description: Total protein was extracted from each cell using 1% NP-40 lysis buffer (150 mM NaCl, 10 mM HEPES (pH 7.45), 1% NP-40, 5 mM Na pyrophosphate, 5 mM NaF, 2 mM Na3VO4) containing protease inhibitor cocktail tablets (Roche, Basel, Switzerland). Equal amounts (20 μg) of protein from each sample were fractionated using SDS-PAGE and the protein was then transferred onto nitrocellulose membranes (Hybond ECL; GE Healthcare, Chicago, IL, USA) using electrophoresis. The membranes were blocked for 1 h at room temperature using 5% non-fat dry milk and were then incubated with primary antibodies specific to the target protein at 4 °C overnight. The membranes were washed three times, and incubated with the respective secondary antibodies conjugated with horseradish peroxidase. The specific bands of targeted proteins were detected using ECL Plus (GE Healthcare, Chicago, IL, USA).

LLC tumors = assay: Tumor allograft model, LLC cells (tumor growth, immunohistochemistry); type: in vivo, C57BL/6 mice
Description: LLC and CT26 cells were suspended separately in PBS (5 × 10^5 cells/100 µL PBS) and inoculated in subcutaneously on the back of 7-week-old C57BL/6 mice and BALB/c mice respectively (Orient Bio Inc., Seongnam, Korea; n = 7). One day after the inoculation with tumor cells, mice of the control group (n = 7) were intraperitoneally administrated 100 µL of PBS per day for 18 days. Each of the MA-treated mice were intraperitoneally administrated 0.02, 0.2, or 1 mg MA, respectively, in 100 µL PBS per 20 g body weight, each day for 18 days. All mice were euthanized 19 days after inoculation with the tumor cells, and the tumors were excised and weighed. Length (l) and width (w) of each tumor were measured using a caliper, and the respective volume (V) was calculated according to the formula V = [(l × w^2)/2]. Tumors were immediately removed from euthanized mice and prepared for histological examinations. To test liver and kidney toxicity of MA, at the end of the in vivo allograft experiment blood was collected from each mouse and serum was separated. Biochemical analyses of aspartate aminotransferase (AST), alanine aminotransferase (ALT), creatinine, and blood urea nitrogen (BUN) were performed using a commercial service (Green Cross Co., Yongin, Korea). All experimental procedures followed the Guidelines for the Care and Use of Laboratory Animals of the National Institutes of Health of Korea, and were approved by the Institutional Animal Care and Use Committee of Pusan National University, Republic of Korea (PNU-2018-1954, Date of approval: 27th June 2018).
Tumor specimens were immediately removed from euthanized mice, fixed in PBS with 3.7% formalin, and embedded in paraffin for immunohistochemical analyses. The paraffin sections were immunostained using an antibody specific to the endothelial cell marker CD31 (ab28364, Abcam, Cambridge, UK), macrophage marker CD68 (ab125212, Abcam, Cambridge, UK), and M2 phenotype macrophage marker CD206 (ab64693, Abcam, Cambridge, UK). The staining was visualized using a Dako EnVision kit (Dako, Santa Clara, CA, USA), and counterstained with hematoxylin.

[2] = system: human liver cytochrome P450 1A1 (CYP1A1); conditions: cited from earlier work
[3] = system: human liver cytochrome P450 2B6; conditions: cited from earlier work

## C[C@H](Cc1ccc2c(c1)OCO2)[C@@H](C)Cc1ccc2c(c1)OCO2 [MA, bis(3,4-methylenedioxy)-8,8’-lignan]
DLD-1; MA 10 µM
  Lactate (production): 3680 ± 90 µM
DLD-1; MA 50 µM
  Lactate (production): 2940 ± 170 µM
HCC-95; MA 10 µM
  Lactate (production): 2250 ± 160 µM
HCC-95; MA 50 µM
  Lactate (production): 1760 ± 100 µM
HT29; MA 10 µM
  Lactate (production): 3420 ± 370 µM
HT29; MA 50 µM
  Lactate (production): 2730 ± 40 µM
HT29; machilin A 30 μM, hypoxia
  increase of lactate production in hypoxic condition: significantly reduced
Hep3B; MA 10 µM
  Lactate (production): 1120 ± 40 µM
Hep3B; MA 50 µM
  Lactate (production): 730 ± 10 µM
HepG2; MA 10 µM
  Lactate (production): 510 ± 60 µM
HepG2; MA 50 µM
  Lactate (production): 470 ± 70 µM
Huh7; MA 10 µM
  Lactate (production): 1140 ± 320 µM
Huh7; MA 50 µM
  Lactate (production): 670 ± 150 µM
MCF7; MA 10 µM
  Lactate (production): 1070 ± 150 µM
MCF7; MA 50 µM
  Lactate (production): 770 ± 190 µM
NCI-H1793; MA 10 µM
  Lactate (production): 2360 ± 260 µM
NCI-H1793; MA 50 µM
  Lactate (production): 2040 ± 380 µM
R.K.O; MA 10 µM
  Lactate (production): 2760 ± 60 µM
R.K.O; MA 50 µM
  Lactate (production): 2480 ± 60 µM
WiDr; MA 10 µM
  Lactate (production): 3220 ± 50 µM
WiDr; MA 50 µM
  Lactate (production): 2700 ± 60 µM
HT29 cells
  mitochondrial ROS: induced mitochondrial ROS
[1]
  increase of adenosine triphosphate (ATP) synthesis in hypoxic condition: significantly reduced
LDHA
  expression of LDHA: not affected
LLC tumors; LLC tumors of mice
  expression of CD206 in macrophages in tumor tissues: markedly inhibited
  formation of new vessels in tumors (CD31): suppressed the formation of new vessels
  presence of macrophages that infiltrated tumor tissues (CD68): no change
LLC tumors; LLC, 1, 10, or 50 µg/g body weight intraperitoneally daily
  volume, weight, and size of tumors: significantly reduced
[2]
  inhibitory effect on drug metabolism: selective inhibitory effect
[3]
  inhibitory effect on drug metabolism: selective inhibitory effect
